Experimental data: US20060194756A1 (priority 2004, published 2006)
Read-outs that look alike come from different tables or passages of the source.

How the values were obtained:
[1] = system: HIF-1α protein expression in NCTC 2544 keratinocytes; test: HIF-1α protein expression in NCTC 2544 keratinocytes under hypoxia; format: cell-based, human; conditions: NCTC 2544, Cl-IB-MECA 100 nM, 4 hours of hypoxia
Description: (§1) Cell culture and hypoxia treatment: Cells were maintained in DMEM (A375), EMEM (NCTC 2544) or RPMI 1640 (U87MG, U2OS) medium containing 10% fetal calf serum, penicillin (100 U/ml), streptomycin (100 ug/ml), and L-glutamine (2 mM) at 37° C. in 5% CO2/95% air. Cells were passaged two or three times weekly at a ratio between 1:5 and 1:10. Hypoxic exposure was in BBL™ GasPak pouch™ System (Becton Dickinson) that reduce oxygen concentration of less than 2% within 2 hours of incubation at 35° C.
(§2) Cells were harvested and washed with ice-cold PBS containing 1 mM sodium orthovanadate, AEBSF 104 mM, aprotinin 0.08 mM, leupeptin 2 mM, bestatin 4 mM, pepstatin A 1.5 mM, E-64 1.4 mM. Cells were then lysed in Triton lysis buffer. The protein concentration was determined using BCA protein assay kit (Pierce). Equivalent amounts of protein (35 ug) were subjected to electrophoresis on 7.5% sodium dodecyl sulfate-acrylamide gel. The gel was then electroblotted onto a nitrocellulose membrane. […] Aliquots of total protein sample (50 μg) were analyzed using antibodies specific for phosphorylated (Thr183/Tyr185) or total p44/p42 MAPK (1:5000 dilution), phosphorylated (Thr180/Tyr182) or total p38 MAPK (1:1000 dilution) and for A3 receptor (1 μg/ml dilution). […]

[2] = system: HIF-1α protein expression in U87MG glioblastoma cells; test: HIF-1α protein expression in U87MG glioblastoma cells under hypoxia; format: cell-based, human; conditions: Cl-IB-MECA 100 nM, 4 hours of hypoxia
Description: as §1, §2

[3] = system: HIF-1α protein expression in A375 melanoma cells; test: HIF-1α protein accumulation in A375 cells (immunoblot, densitometry); format: cell-based, human; conditions: for prevention of adenosine-induced HIF-1α protein expression: adenosine 100 μM, antagonist 100 nM, hypoxia 4 hours; for abrogation of the effect of Cl-IB-MECA in HIF-1α modulation: antagonist 10 and 100 nM, Cl-IB-MECA 10 and 100 nM; for inhibition of Cl-IB-MECA-induced increase of HIF-1α protein expression: U0126 10 and 30 μM, SB202190 1 and 10 μM
Description: as §1
Cells were harvested and washed with ice-cold PBS containing 1 mM sodium orthovanadate, AEBSF 104 mM, aprotinin 0.08 mM, leupeptin 2 mM, bestatin 4 mM, pepstatin A 1.5 mM, E-64 1.4 mM. Cells were then lysed in Triton lysis buffer. The protein concentration was determined using BCA protein assay kit (Pierce). […] The gel was then electroblotted onto a nitrocellulose membrane. Membranes were blocked with 5% nonfat dry milk in PBS containing 0.1% Tween-20 and incubated with antibodies against HIF-1α (1:250 dilution) and HIF-1β (1:1000 dilution) in 5% nonfat dry milk in PBS/0.1% Tween-20 overnight at 4° C. Aliquots of total protein sample (50 μg) were analyzed using antibodies specific for phosphorylated (Thr183/Tyr185) or total p44/p42 MAPK (1:5000 dilution), phosphorylated (Thr180/Tyr182) or total p38 MAPK (1:1000 dilution) and for A3 receptor (1 μg/ml dilution). Filters were washed and incubated for 1 hour at room temperature with peroxidase-conjugated secondary antibodies against mouse and rabbit IgG (1:2000 dilution). […] The membranes were then stripped and reprobed with tubulin (1:250) to ensure equal protein loading.
U0126 was used at 10 and 30 uM as inhibitor of MEK-1 and MEK-2 to prevent p44 and p42 MAPK activation. SB202190 was used at 1 and 10 μM as inhibitor of p38 MAPK.
(§3) Densitometry analysis: The intensity of each band in immunoblot assay was quantified using molecular analyst/PC densitometry software (Bio-Rad). […] The data were presented as the mean±S.E., and analyzed by the Student's test.

[4] = system: p44/p42 MAPK phosphorylation in A375 cells; test: p44/p42 MAPK phosphorylation in hypoxic A375 cells (immunoblot); format: cell-based, human; conditions: 4 hours in hypoxia
Description: (§4) Cells were harvested and washed with ice-cold PBS containing 1 mM sodium orthovanadate, AEBSF 104 mM, aprotinin 0.08 mM, leupeptin 2 mM, bestatin 4 mM, pepstatin A 1.5 mM, E-64 1.4 mM. Cells were then lysed in Triton lysis buffer. The protein concentration was determined using BCA protein assay kit (Pierce). Equivalent amounts of protein (35 ug) were subjected to electrophoresis on 7.5% sodium dodecyl sulfate-acrylamide gel. The gel was then electroblotted onto a nitrocellulose membrane. Membranes were blocked with 5% nonfat dry milk in PBS containing 0.1% Tween-20 and incubated with antibodies against HIF-1α (1:250 dilution) and HIF-1β (1:1000 dilution) in 5% nonfat dry milk in PBS/0.1% Tween-20 overnight at 4° C. Aliquots of total protein sample (50 μg) were analyzed using antibodies specific for phosphorylated (Thr183/Tyr185) or total p44/p42 MAPK (1:5000 dilution), phosphorylated (Thr180/Tyr182) or total p38 MAPK (1:1000 dilution) and for A3 receptor (1 μg/ml dilution). Filters were washed and incubated for 1 hour at room temperature with peroxidase-conjugated secondary antibodies against mouse and rabbit IgG (1:2000 dilution). […]
as §3

[5] = system: HIF-1α protein expression in U2OS osteosarcoma cells; test: HIF-1α protein expression in U2OS osteosarcoma cells under hypoxia; format: cell-based, human; conditions: Cl-IB-MECA 100 nM, 4 hours of hypoxia
Description: as §1, §2

[6] = system: p38 MAPK phosphorylation in A375 cells; test: p38 MAPK phosphorylation in hypoxic A375 cells (immunoblot); format: cell-based, human; conditions: 4 hours in hypoxia, various concentrations
Description: as §4, §3

[7] = system: HIF-1α protein degradation in A375 cells; test: HIF-1α degradation after return of hypoxic A375 cells to normoxia; format: cell-based, human; conditions: Cl-IB-MECA 100 nM, 4 hours hypoxia then normoxia 0-15 minutes
Description: as §4, §3

[8] = system: HIF-1β protein expression in A375 melanoma cells; test: HIF-1β protein expression in A375 cells (immunoblot); format: cell-based, human; conditions: hypoxia (Cl-IB-MECA: normoxia and hypoxia)
Description: as §1
Cells were harvested and washed with ice-cold PBS containing 1 mM sodium orthovanadate, AEBSF 104 mM, aprotinin 0.08 mM, leupeptin 2 mM, bestatin 4 mM, pepstatin A 1.5 mM, E-64 1.4 mM. Cells were then lysed in Triton lysis buffer. The protein concentration was determined using BCA protein assay kit (Pierce). Equivalent amounts of protein (35 ug) were subjected to electrophoresis on 7.5% sodium dodecyl sulfate-acrylamide gel. The gel was then electroblotted onto a nitrocellulose membrane. Membranes were blocked with 5% nonfat dry milk in PBS containing 0.1% Tween-20 and incubated with antibodies against HIF-1α (1:250 dilution) and HIF-1β (1:1000 dilution) in 5% nonfat dry milk in PBS/0.1% Tween-20 overnight at 4° C. Aliquots of total protein sample (50 μg) were analyzed using antibodies specific for phosphorylated (Thr183/Tyr185) or total p44/p42 MAPK (1:5000 dilution), phosphorylated (Thr180/Tyr182) or total p38 MAPK (1:1000 dilution) and for A3 receptor (1 μg/ml dilution). Filters were washed and incubated for 1 hour at room temperature with peroxidase-conjugated secondary antibodies against mouse and rabbit IgG (1:2000 dilution). […] The membranes were then stripped and reprobed with tubulin (1:250) to ensure equal protein loading.

[9] = intact anesthetized rabbits studied in situ; cited from earlier work
[10] = transient middle cerebral artery occlusion focal ischemia; cited from earlier work
[11] = rat 4 vessel occlusion model; cited from earlier work
[12] = Cl-IB-MECA 100 nM, 4 hours in hypoxia

Structure (SMILES): CNC(=O)[C@H]1O[C@@H](n2cnc3c(NCc4cccc(I)c4)nc(Cl)nc32)[C@H](O)[C@@H]1O [Cl-IB-MECA]
- HIF-1α protein expression [1]: significant increase
- HIF-1α protein expression [2]: significant increase
- HIF-1α protein levels in CoCl2-treated cells ([3]; 100 μM CoCl2, normoxia, 4 hours): able to increase the levels of HIF-1α protein
- HIF-1α levels in cells exposed to cycloheximide ([3]; 100 μM CoCl2, normoxia, Cl-IB-MECA 100 nM, CHX 1 μM, within 6 hours): failed to increase
- HIF-1α protein expression in the presence of actinomycin D ([3]; Act-D 10 μg/ml, Cl-IB-MECA 100 nM, 4 hours in hypoxia): able to increase HIF-1α protein expression also in the presence of Act-D
- concentration inducing maximum expression of HIF-1α protein ([3]; hypoxia, 4 hours): 100 nM
- time of maximum peak HIF-1α levels after addition ([3]; hypoxia, Cl-IB-MECA 100 nM): 4 h
- HIF-1α protein expression under hypoxic conditions, time course ([3]; hypoxia, Cl-IB-MECA 100 nM, 2-24 hours): increased in a time-dependent manner
- HIF-1α protein accumulation in normoxia ([3]; normoxia, Cl-IB-MECA 100 nM): did not promote HIF-1α protein accumulation
- concentration giving maximum induction of p44/p42 phosphorylation [4]: 100 nM
- phosphorylation of p44 and p42 ([4]; nanomolar concentrations): induced
- HIF-1α protein expression [5]: significant increase
- phosphorylation of p38 MAPK [6]: increased the phosphorylation of p38 MAPK in a dose-dependent manner
- HIF-1α degradation rate after removal of hypoxic conditions [7]: unchanged degradation rate
- modulation of HIF-1β protein expression [8]: did not modify

Structure (SMILES): CCCn1c(=O)c2[nH]c(-c3cc(OCC(=O)Nc4ccc5c(c4)OCO5)nn3C)nc2n(CCC)c1=O [MRE 2029F20]
- prevention of adenosine-induced HIF-1α protein expression [3]: not able to prevent

Structure (SMILES): Cn1cc2c(nc(NC(=O)Nc3ccncc3)n3nc(-c4ccco4)nc23)n1 [MRE 3005F20]
- abrogation of the effect of Cl-IB-MECA in HIF-1α modulation ([3]; hypoxia): able to abrogate
- modulation of HIF-1β protein expression [8]: neither MRE 3008F20 nor MRE 3005F20 had any effect

Structure (SMILES): CCCn1cc2c(nc(NC(=O)Nc3ccc(OC)cc3)n3nc(-c4ccco4)nc23)n1 [MRE 3008F20]
- prevention of adenosine-induced HIF-1α protein expression [3]: abrogated
- abrogation of the effect of Cl-IB-MECA in HIF-1α modulation ([3]; hypoxia): able to abrogate
- IC50 ([3]; read-out: IC50 for inhibition of HIF-1α protein increase induced by 10 nM Cl-IB-MECA, hypoxia 4 hours, MRE 3008F20 0.3-30 nM): 0.9 ± 0.08 nM
- modulation of HIF-1β protein expression [8]: neither MRE 3008F20 nor MRE 3005F20 had any effect

Structure (SMILES): C[C@H](Cc1ccccc1)Nc1ncnc2c1ncn2[C@@H]1O[C@H](CO)[C@@H](O)[C@H]1O [PIA, N^6-1-(phenyl-2R-isopropyl) adenosine]
- cardioprotection [9]: pharmacologically induce cardioprotection

Structure (SMILES): Oc1ccc(-c2nc(-c3ccncc3)c(-c3ccc(F)cc3)[nH]2)cc1 [SB202190]
- inhibition of Cl-IB-MECA-induced increase of HIF-1α protein expression [3, 12]: able to inhibit

Structure (SMILES): Nc1nc2c(cnn2CCc2ccccc2)c2nc(-c3ccco3)nn12 [SCH 58261, 5-amino-7-(2-phenylethyl)-2-(2-furyl)-pyrazolo[4,3-e]-1,2,4-triazolo[1,5-c]pyrimidine]
- prevention of adenosine-induced HIF-1α protein expression [3]: not able to prevent

Structure (SMILES): CSCC[C@@H]1NC(=O)[C@H](CC(C)C)NC(=O)[C@H](CCCNC(=N)N)NC(=O)[C@H](CO)NC(=O)[C@@H]2CSSC[C@@H]3NC(=O)[C@H](CO)NC(=O)CNC(=O)[C@H]([C@@H](C)O)NC(=O)[C@H](CSSC[C@H](N)C(=O)N[C@@H](CCCCN)C(=O)NCC(=O)N[C@@H](CCCCN)C(=O)NCC(=O)N[C@@H](C)C(=O)N[C@@H](CCCCN)C(=O)N2)NC(=O)[C@H](CSSC[C@@H](C(N)=O)NC(=O)[C@H](CCCCN)NC(=O)CNC(=O)[C@H](CO)NC(=O)[C@H](CCCNC(=N)N)NC3=O)NC(=O)[C@H](CC(=O)O)NC(=O)[C@H](Cc2ccc(O)cc2)NC1=O [SNX-111]
- neuroprotection [10]: neuroprotective
- neuroprotection [11]: neuroprotective

Structure (SMILES): N#CC(=C(/N)Sc1ccccc1N)/C(C#N)=C(\N)Sc1ccccc1N [U0126]
- inhibition of Cl-IB-MECA-induced increase of HIF-1α protein expression [3, 12]: able to inhibit

Structure (SMILES): Nc1ncnc2c1ncn2[C@@H]1O[C@H](CO)[C@@H](O)[C@H]1O [adenosine]
- modulation of HIF-1β protein expression [8]: did not observe any modulation
